Measured values taken from patent US20230381170A1, “METHOD FOR TREATING ALS/FTD THROUGH DEGRADATION OF RNA REPEAT EXPANSION” (University of Florida Research Foundation, Incorporated, priority 2020, published 2023).
“Also recorded” adds a separate entry of the source.

How the values were obtained:
[1] = molecular target: r(G4C2)8 and hnRNP H1 complex; test: TR-FRET hnRNP H binding assay; assay type: biochemical; details: inhibiting r(G4C2)8 and hnRNP H1 complex formation; 7 in the absence of Rnase L
Description: TR-FRET hnRNP H Binding Assay. TR-FRET assays were performed as previously described (12). The mixture was incubated for 15 min at room temperature and then hnRNP H1-His6 was added. After an additional 15 min incubation, streptavidin-XL665 (HTRF, Cisbio Bioassays) and anti-His6-Tb (HTRF, Cisbio Bioassays) were added to a final concentration of 40 nM and 0.44 ng/μL, respectively. After incubating for 1 h, TR-FRET was measured as previously described (12).

Poly(GP) [2] = test: Poly(GP) by immunoassay in patient-derived iPSCs; assay type: cell-based, human; details: for Poly(GP) levels: iPSCs from c9ALS patients
Description: (§1) iPSCs were treated for 4 days in Matrigel (356234, Corning) coated plates with mTeSR™1 feeder-free medium ([…] Technologies; Catalog #85850). Cells were treated in 6-well plates on day 1 and 3 with compounds diluted in 0.1% final DMSO.
(§2) Measuring Poly(GP) Levels by Electrochemiluminescence. LCLs were seeded in T-25 flash at 400,000 cells/mL in 5 mL of growth medium. After overnight incubation, the cells were treated with compound or ASO for 4 days at 37° C. After the treatment period, the cells were pelleted, and total protein was extracted by incubating with CoIP2 Buffer (50 mM Tris-HCL, pH 7.4, 300 mM NaCl, 5 mM EDTA, 1% (v/v) Triton-X 100, 2% (w/v) sodium dodecyl sulfate, and 0.01% (v/v) protease and phosphatase inhibitors) on ice for 5 min and then sonication (3 s intervals at 35% power for ˜40 s). Detergent was then removed using Pierce™ Detergent Removal Spin Columns following manufacturer's protocol. Protein concentration was measured by Pierce™ BCA Protein Assay Kit.
(§3) Levels of poly(GP) were measured using Meso Scale Discovery MSD Gold 96-well Streptavidin SECTOR plates. Both capture and detection antibodies were generated using an anti-poly(GP) antibody kindly provided by the Target ALS Foundation. To serve as the capture antibody, the poly(GP) antibody was conjugated to biotin using EZ-Link™ Sulfo-NHS-LC-Biotin (Thermo Fisher) as per the manufacturer's protocol. To serve as the detection antibody, the poly(GP) antibody was sulfo-tagged using MSD GOLD SULFO-TAG NHS-Ester (Meso Scale Discovery) as per the manufacturer's protocol. The conjugated antibodies were desalted with 40K Zeba™ Spin Desalting Columns (Thermo Fisher Scientific), and their concentrations were determined by Pierce™ BCA Protein Assay Kit.
Briefly, the plates were incubated with 2 μg/ml of anti-poly(GP)-biotin antibody at 4° C. overnight. […] After washing with 150 μL of 1×TBST three times, 1×MSD GOLD Read Buffer was added to each well, and electrochemiluminescence was measured using a SECTOR Imager (MSD). […]

WT C9ORF72 protein = test: C9ORF72 expression by Western blotting; assay type: cell-based, human; details: Western blot, relative to β-actin
Description: Measuring C9ORF72 Expression Level by Western Blotting. Samples analyzed by Western blot were prepared as described in “Measuring poly(GP) Levels by Electrochemiluminescence”. Approximately 20 μg of total protein was separated on a 10% SDS-polyacrylamide gel, and then transferred to a PVDF membrane. The membrane was washed with 1×TBS and then blocked in 5% milk in 1×TBST for 1 h at room temperature. After washing with 1×TBST, C9orf72 antibody (GeneTex, GTX119776; 1:3000 dilution) was added in 1×TBST containing 5% milk overnight at 4° C. […] The membrane was washed with 1×TBST, and protein expression was quantified using SuperSignal West Pico Chemiluminescent Substrate (Pierce Biotechnology) per the manufacturer's protocol.
To quantify β-actin expression, the membrane was stripped using 1× Stripping Buffer (200 mM glycine, pH 2.2 and 0.1% SDS) followed by washing in 1×TBST. […] The membrane was washed with 1×TBST and incubated with 1:10,000 anti-rabbit IgG horseradish-peroxidase secondary antibody conjugate (Cell Signaling Technology) in 1×TBST containing 5% (w/v) milk for 1 h at room temperature. β-actin protein expression was quantified using SuperSignal West Pico Chemiluminescent Substrate (Pierce Biotechnology) per the manufacturer's protocol. […].

Poly(GP) [3] = test: Poly(GP) by electrochemiluminescent immunoassay in patient-derived LCLs; assay type: cell-based, human
Description: as §2, §3
Briefly, the plates were incubated with 2 μg/ml of anti-poly(GP)-biotin antibody at 4° C. overnight. The wells were then washed three times with 1×TBST [1×Tris-buffered saline (TBS) containing 0.1% (v/v) Tween-20] and blocked with 3% BSA in 1×TBST for 1 h at room temperature (with shaking). The blocking solution was removed, and the wells were washed 3 times with 150 μL of 1×TBST. […] After washing with 150 μL of 1×TBST three times, 1×MSD GOLD Read Buffer was added to each well, and electrochemiluminescence was measured using a SECTOR Imager (MSD). […]

[4] = tested on: C9orf72 intron 1 harboring r(G4C2)exp; test: C9orf72 intron 1 RT-qPCR in patient-derived iPSCs; assay type: cell-based, human
Description: as §1
Measuring Levels of C9orf72 and C9orf72 Variants by RT-qPCR. LCLs were seeded in 6-well plate (˜10^6 cells in 2 mL of growth medium) and incubated overnight at 37° C. Cells were then treated with various concentrations of compound for 24 h or with G4C2-ASO and Control-ASO (100 nM), delivered by transfection with Lipofectamine RNAiMax. RNA was extracted as described above and the expression of C9orf72 variants was determined by RT-qPCR. For iPSC and iPSC-derived motor neuron cell line, the cells were seeded into Matrigel-coated 6-well plate to ˜60% confluence before treated with 3 μM C9orf72-ASO or Control-ASO and various concentrations of compound for 1 to 2 weeks. For compound treatment well, medium change was performed with fresh compound every 3-4 days. RNA was extracted as described above and the expression of C9orf72 variants was determined by RT-qPCR.

| IC50 [1] | SMILES | potency and duration of activity for reducing Poly(GP) abundance compared to parent compound 3 (Poly(GP) [2]) | Poly(GP) levels (Poly(GP) [2]) | WT C9ORF72 protein levels (WT C9ORF72 protein) | reduction of Poly(GP) levels (Poly(GP) [3]; 500 nM) | increase in potency over parent compound 3 (Poly(GP) [3]; Poly(GP) in LCLs) | reduction of r(G4C2)exp-containing intron 1 levels ([4]; 50 nM) | reduction of r(G4C2)exp-containing intron 1 levels ([4]; 500 nM) | Poly(GP) expression (Poly(GP) [3]; 5, 50 and 500 nM for 4 days) | C9orf72 intron 1 levels ([4]; patient-derived iPSCs) |
| --- | --- | --- | --- | --- | --- | --- | --- | --- | --- | --- |
| 2.4 ± 0.1 µM | CCOC(=O)C1=C(Nc2ccccc2)S/C(=C\c2ccc(OCCOCCOCCOCCNC(=O)CCC(=O)N(CCOCCOCCOc3ccc4[nH]c5c(C)c6ccncc6c(C)c5c4c3)CCOCCOCCOc3ccc4[nH]c5c(C)c6ccncc6c(C)c5c4c3)c(O)c2)C1=O [Compound 7] | significant increase in potency and a prolonged period of activity; also recorded: significant (P<0.05) increase in potency and a prolonged duration of activity | significant reduction | unchanged | 71±11% | 5 fold | 45±11% | 64±10% |  |  |
| 0.9 ± 0.1 µM | Cc1c2ccncc2c(C)c2c1[nH]c1ccc(OCCOCCOCCNCCOCCOCCOc3ccc4[nH]c5c(C)c6ccncc6c(C)c5c4c3)cc12 [Compound 3] |  | reduced Poly(GP) levels dose-dependently | no effect |  |  |  |  | dose-dependent decrease | no effect |
